According to patent publication US9637492B2, “Benzothiazole kinase inhibitors and methods of use” (Intellikine LLC, priority 2008, dated 2017):
pIC50: −log10 of the molar value.

How the values were obtained:
mTORC = molecular target: T1, mTORC (Homo sapiens, UniProt P42345); experiment: mTOR inhibition assay (Table 4, mTORC); format: biochemical; details: binned
T1 construct: purchased Invitrogen
Protocol: The compounds described herein can be tested against recombinant mTOR (Invitrogen) in an assay containing 50 mM HEPES, pH 7.5, 1 mM EGTA, 10 mM MgCl2, 2.5 mM, 0.01% Tween, 10 μM ATP (2.5 μCi of […]), and 3 μg/mL BSA. Rat recombinant PHAS-1/4EBP1 (Calbiochem; 2 mg/mL) is used as a substrate. Reactions are terminated by spotting onto nitrocellulose, which is washed with 1M NaCl/1% phosphoric acid (approximately 6 times, 5-10 minutes each). Sheets are dried and the transferred radioactivity quantitated by phosphorimaging.
Other kits or systems for assaying mTOR activity are commercially avaiable. For instance, one can use Invitrogen's LanthaScreen™ Kinase assay to test the inhibitors of mTOR disclosed herein. This assay is a time resolved FRET platform that measures the phosphorylation of GFP labeled 4EBP1 by mTOR kinase. The kinase reaction is performed in a white 384 well microtitre plate. The total reaction volume is 20 ul per well and the reaction buffer composition is 50 mM HEPES pH7.5, 0.01% Polysorbate 20, 1 mM EGTA, 10 mM MnC12, and 2 mM DTT. In the first step, each well receives 2 ul of test compound in 20% dimethylsulphoxide resulting in a 2% DMSO final concentration. Next, 8 ul of mTOR diluted in reaction buffer is added per well for a 60 ng/ml final concentration. To start the reaction, 10 ul of an ATP/GFP-4EBP1 mixture (diluted in reaction buffer) is added per well for a final concentration of 10 uM ATP and 0.5 uM GFP-4EBP1. The plate is sealed and incubated for 1 hour at room temperature. The reaction is stopped by adding 10 ul per well of a Tb-anti-pT46 4EBP1 antibody/EDTA mixture (diluted in TR-FRET buffer) for a final concentration of 1.3 nM antibody and 6.7 mM EDTA. The plate is sealed, incubated for 1 hour at room temperature, and then read on a plate reader set up for LanthaScreen™ TR-FRET. Data is analyzed and IC50s are generated using GraphPad Prism 5.

[1] = control or reference compounds, 5 μM; cited from earlier work
PI3K beta = molecular target: T2, PI3K beta (Homo sapiens, UniProt P42338); experiment: PI3K beta inhibition assay; format: biochemical; details: binned
T2 construct: purchased Upstate
T2 sequence (P42338 whole entry): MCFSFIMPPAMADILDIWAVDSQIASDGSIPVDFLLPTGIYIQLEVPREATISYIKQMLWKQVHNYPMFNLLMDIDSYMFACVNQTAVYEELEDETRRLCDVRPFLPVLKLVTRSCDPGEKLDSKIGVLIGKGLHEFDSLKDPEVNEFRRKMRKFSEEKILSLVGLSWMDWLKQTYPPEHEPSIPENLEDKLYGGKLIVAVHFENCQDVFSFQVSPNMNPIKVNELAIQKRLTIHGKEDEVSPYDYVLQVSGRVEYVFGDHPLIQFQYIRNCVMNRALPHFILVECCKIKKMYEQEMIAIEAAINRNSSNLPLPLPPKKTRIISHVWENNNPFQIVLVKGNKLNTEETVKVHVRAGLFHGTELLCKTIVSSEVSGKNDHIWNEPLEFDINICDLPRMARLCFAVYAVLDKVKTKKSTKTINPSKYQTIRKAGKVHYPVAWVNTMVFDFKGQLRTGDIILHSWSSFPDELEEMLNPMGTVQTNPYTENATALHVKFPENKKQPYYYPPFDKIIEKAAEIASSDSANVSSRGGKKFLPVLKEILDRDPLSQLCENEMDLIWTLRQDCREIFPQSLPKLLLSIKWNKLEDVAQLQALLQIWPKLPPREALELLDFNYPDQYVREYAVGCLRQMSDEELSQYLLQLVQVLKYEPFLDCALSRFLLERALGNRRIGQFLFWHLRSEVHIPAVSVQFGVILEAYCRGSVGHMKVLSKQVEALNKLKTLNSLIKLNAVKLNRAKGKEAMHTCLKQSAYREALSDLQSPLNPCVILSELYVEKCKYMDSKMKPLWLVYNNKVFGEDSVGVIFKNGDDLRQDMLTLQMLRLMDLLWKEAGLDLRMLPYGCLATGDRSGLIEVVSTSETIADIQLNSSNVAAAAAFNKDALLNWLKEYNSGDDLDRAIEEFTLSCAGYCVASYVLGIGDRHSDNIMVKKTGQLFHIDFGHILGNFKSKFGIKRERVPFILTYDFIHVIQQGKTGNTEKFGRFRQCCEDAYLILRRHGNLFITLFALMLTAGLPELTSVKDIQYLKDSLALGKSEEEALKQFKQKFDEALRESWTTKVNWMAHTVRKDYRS
T2 sequence (P27986 2-724 partner): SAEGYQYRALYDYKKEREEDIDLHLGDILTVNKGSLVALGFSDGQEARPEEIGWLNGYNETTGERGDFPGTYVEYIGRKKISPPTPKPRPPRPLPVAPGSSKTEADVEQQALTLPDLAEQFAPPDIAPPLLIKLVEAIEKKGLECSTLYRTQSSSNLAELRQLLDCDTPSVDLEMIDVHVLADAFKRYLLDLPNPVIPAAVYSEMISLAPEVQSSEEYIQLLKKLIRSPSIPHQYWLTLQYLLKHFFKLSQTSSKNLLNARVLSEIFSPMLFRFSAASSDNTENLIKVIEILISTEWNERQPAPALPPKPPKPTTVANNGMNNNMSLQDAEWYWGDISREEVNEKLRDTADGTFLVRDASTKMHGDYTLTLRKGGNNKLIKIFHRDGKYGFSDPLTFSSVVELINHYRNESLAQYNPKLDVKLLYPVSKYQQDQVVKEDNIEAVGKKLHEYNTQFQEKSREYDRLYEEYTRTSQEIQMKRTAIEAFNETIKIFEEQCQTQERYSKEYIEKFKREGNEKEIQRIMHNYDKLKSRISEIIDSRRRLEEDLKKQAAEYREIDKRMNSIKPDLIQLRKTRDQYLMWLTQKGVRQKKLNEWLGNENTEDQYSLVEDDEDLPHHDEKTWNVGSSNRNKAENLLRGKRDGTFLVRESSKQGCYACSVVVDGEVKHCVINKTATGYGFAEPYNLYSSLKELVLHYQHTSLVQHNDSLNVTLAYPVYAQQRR
Protocol: (§1) For TLC analysis, reactions are then terminated by the addition of 105 μl 1N HCl followed by 160 μl CHC13:MeOH (1:1). The biphasic mixture is vortexed, briefly centrifuged, and the organic phase is transferred to a new tube using a gel loading pipette tip precoated with CHCl3. […] The TLC plates are then dried, exposed to a phosphorimager screen (Storm, Amersham), and quantitated.
(§2) Anr exemplary system is PI 3-Kinase (human) HTRF™ Assay from Upstate. […] Briefly, the assay is a time resolved FRET assay that indirectly measures PIP3 product formed by the activity of a PI3-K. The kinase reaction is performed in a microtitre plate (e.g., a 384 well microtitre plate). The total reaction volume is approximately 20 ul per well. In the first step, each well receives 2 ul of test compound in 20% dimethylsulphoxide resulting in a 2% DMSO final concentration. Next, approximately 14.5 ul of a kinase/PIP2 mixture (diluted in 1× reaction buffer) is added per well for a final concentration of 0.25-0.3 ug/ml kinase and 10 uM PIP2. The plate is sealed and incubated for 15 minutes at room temperature. To start the reaction, 3.5 ul of ATP (diluted in 1× reaction buffer) is added per well for a final concentration of 10 uM ATP. The plate is sealed and incubated for 1 hour at room temperature. The reaction is stopped by adding 5 ul of Stop Solution per well and then 5 ul of Detection Mix is added per well. The plate is sealed, incubated for 1 hour at room temperature, and then read on an appropriate plate reader. Data is analyzed and IC50s are generated using GraphPad Prism 5.

PI3K gamma = molecular target: T3, PI3K gamma (Homo sapiens, UniProt P48736); experiment: PI3K gamma inhibition assay; format: biochemical; details: binned
T3 construct: purchased Sigma
Protocol: For TLC analysis, reactions are then terminated by the addition of 105 μl 1N HCl followed by 160 μl CHC13:MeOH (1:1). The biphasic mixture is vortexed, briefly centrifuged, and the organic phase is transferred to a new tube using a gel loading pipette tip precoated with CHCl3. This extract is spotted on TLC plates and developed for 3-4 hours in a 65:35 solution of n-propanol:1M acetic acid. The TLC plates are then dried, exposed to a phosphorimager screen (Storm, Amersham), and quantitated. For each compound, kinase activity is measured at 10-12 inhibitor concentrations representing two-fold dilutions from the highest concentration tested (typically, 200 μM).
Other commercial kits or systems for assaying PI3-K activities are available. The commercially available kits or systems can be used to screen for inhibitors and/or agonists of PI3-Ks including but not limited to PI 3-Kinase α, β, δ, and γ. Anr exemplary system is PI 3-Kinase (human) HTRF™ Assay from Upstate. […] Briefly, the assay is a time resolved FRET assay that indirectly measures PIP3 product formed by the activity of a PI3-K. The kinase reaction is performed in a microtitre plate (e.g., a 384 well microtitre plate). […] The plate is sealed, incubated for 1 hour at room temperature, and then read on an appropriate plate reader. Data is analyzed and IC50s are generated using GraphPad Prism 5.

PI3K alpha = molecular target: T4, PI3K alpha (Homo sapiens, UniProt P42336); experiment: PI3K alpha inhibition assay; format: biochemical; details: binned
T4 construct: purchased Upstate
T4 sequence (P42336 whole entry): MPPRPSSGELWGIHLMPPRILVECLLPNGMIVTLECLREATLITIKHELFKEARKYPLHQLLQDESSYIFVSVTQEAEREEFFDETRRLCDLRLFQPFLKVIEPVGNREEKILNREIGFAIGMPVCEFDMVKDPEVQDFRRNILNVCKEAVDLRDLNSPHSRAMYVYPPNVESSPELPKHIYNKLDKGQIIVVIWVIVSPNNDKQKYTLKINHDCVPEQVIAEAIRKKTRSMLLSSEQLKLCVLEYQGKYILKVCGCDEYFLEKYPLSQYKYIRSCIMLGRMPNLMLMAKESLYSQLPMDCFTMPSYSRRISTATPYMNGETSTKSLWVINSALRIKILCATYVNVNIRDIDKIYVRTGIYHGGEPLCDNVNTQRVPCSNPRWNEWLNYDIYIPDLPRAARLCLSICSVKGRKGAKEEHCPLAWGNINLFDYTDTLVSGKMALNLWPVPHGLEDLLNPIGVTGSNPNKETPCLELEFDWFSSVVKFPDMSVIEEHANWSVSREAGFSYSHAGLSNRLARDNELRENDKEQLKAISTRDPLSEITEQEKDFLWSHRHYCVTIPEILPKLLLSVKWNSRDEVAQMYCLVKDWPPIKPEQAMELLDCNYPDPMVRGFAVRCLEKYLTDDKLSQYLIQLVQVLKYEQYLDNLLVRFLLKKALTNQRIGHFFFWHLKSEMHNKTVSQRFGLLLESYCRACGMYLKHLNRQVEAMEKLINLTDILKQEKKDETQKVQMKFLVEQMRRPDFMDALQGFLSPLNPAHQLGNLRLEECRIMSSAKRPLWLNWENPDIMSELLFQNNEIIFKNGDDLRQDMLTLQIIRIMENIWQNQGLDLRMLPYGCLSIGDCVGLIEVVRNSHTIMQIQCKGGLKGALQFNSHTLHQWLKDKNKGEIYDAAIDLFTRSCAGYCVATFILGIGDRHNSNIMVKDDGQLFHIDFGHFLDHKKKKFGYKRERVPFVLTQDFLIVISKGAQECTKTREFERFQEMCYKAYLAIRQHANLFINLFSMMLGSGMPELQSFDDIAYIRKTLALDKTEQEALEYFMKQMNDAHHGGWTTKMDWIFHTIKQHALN
T4 sequence (P27986 whole entry partner): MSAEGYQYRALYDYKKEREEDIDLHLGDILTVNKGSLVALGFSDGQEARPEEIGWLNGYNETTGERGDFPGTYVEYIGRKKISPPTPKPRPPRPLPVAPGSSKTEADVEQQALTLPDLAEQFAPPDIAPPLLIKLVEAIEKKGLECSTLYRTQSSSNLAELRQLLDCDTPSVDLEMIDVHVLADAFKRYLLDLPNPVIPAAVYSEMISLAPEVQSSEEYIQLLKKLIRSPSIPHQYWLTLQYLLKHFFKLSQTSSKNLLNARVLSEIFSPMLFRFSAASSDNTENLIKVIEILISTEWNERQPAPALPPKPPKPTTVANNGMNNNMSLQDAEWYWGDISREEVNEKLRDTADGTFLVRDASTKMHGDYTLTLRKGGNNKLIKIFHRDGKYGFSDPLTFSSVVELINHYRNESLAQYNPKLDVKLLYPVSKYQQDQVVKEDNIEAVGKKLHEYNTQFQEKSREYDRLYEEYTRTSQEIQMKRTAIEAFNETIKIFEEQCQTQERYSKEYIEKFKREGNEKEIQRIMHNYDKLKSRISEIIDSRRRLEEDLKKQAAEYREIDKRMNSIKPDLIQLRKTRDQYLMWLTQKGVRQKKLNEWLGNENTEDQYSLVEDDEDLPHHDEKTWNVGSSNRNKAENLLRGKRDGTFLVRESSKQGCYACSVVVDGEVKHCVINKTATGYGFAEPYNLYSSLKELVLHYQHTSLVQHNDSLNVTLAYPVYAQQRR
Protocol: as §1, §2

[2] = PBS pH 7.4, 37° C., over the course of 24 hours; cited from earlier work
PI3K delta = molecular target: T5, PI3K delta (Homo sapiens, UniProt O00329); experiment: PI3K delta inhibition assay; format: biochemical; details: binned
T5 construct: purchased Upstate
Protocol: as §1, §2

PC3 = experiment: Tumor cell line proliferation assay (Alamar Blue); format: cell-based; details: Homo sapiens, PC-3; binned
Protocol: The ability of one or more subject compounds to inhibit tumor cell line proliferation is determined according to standard procedures known in the art. For instance, an in vitro cellular proliferation assay can be performed to measure the metabolic activity of live cells. The assay is performed in a 96 well microtiter plate using Alamar Blue reduction. Human tumor cell lines are obtained from ATCC (e.g., MCF7, U-87 MG, MDA-MB-468, PC-3), grown to confluency in T75 flasks, trypsinized with 0.25% trypsin, washed one time with Tumor Cell Media (DMEM+10% FBS), and plated in 90 ul at 5,000 cells/well in Tumor Cell Media. A compound disclosed herein is diluted in Tumor Cell Media and added in a 10 ul volume. Plates are incubated for 72 hours at 37 C and 5% CO2. A volume of 10 uL of Alamar Blue reagent is added to each well and plates are incubated for 3 hours at 37 C and 5% CO2. Alamar Blue fluoresce is read at 560Ex/590Em, and IC50 values are calculated using GraphPad Prism 5.

B6.Sle1z.Sle3z model = details: cited from earlier work
[3] = tested on: p190 transduced leukemic cells; details: about 70 mg/kg twice daily; cited from earlier work

T1 sequence (P42345 1360-2549 limits assumed): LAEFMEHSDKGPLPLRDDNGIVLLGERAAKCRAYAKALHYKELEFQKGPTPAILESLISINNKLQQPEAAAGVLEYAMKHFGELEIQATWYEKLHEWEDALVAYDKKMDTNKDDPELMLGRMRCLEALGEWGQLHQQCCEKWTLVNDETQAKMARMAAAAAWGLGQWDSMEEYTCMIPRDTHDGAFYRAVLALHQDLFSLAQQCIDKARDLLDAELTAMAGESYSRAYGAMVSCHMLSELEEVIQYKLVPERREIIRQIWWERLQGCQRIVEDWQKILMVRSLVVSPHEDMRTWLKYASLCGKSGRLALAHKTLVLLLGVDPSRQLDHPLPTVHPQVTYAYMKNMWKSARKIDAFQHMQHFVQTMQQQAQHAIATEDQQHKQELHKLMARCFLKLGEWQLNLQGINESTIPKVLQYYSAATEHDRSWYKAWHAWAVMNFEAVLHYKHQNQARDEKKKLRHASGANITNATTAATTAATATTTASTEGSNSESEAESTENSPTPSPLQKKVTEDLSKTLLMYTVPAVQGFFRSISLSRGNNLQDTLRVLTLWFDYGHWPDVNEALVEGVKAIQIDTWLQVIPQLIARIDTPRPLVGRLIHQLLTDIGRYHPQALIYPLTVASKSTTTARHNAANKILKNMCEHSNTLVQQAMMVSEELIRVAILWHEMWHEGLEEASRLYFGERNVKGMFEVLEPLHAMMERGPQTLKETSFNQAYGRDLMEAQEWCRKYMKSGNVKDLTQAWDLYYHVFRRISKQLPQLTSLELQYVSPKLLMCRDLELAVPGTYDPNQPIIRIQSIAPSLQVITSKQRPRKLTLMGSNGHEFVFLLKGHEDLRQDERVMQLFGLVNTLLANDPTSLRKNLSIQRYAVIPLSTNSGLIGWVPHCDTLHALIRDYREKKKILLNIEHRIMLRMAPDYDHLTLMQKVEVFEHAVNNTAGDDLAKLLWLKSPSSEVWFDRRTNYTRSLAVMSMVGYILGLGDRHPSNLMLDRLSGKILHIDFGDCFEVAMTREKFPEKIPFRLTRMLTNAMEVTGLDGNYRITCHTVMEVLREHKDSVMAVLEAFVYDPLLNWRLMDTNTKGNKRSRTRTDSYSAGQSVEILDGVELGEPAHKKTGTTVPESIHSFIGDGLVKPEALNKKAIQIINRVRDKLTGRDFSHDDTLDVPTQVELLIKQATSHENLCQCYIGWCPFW

## CC(C)C(=O)Nc1nc2ccc(-c3nn(C(C)C)c4ncnc(N)c34)cc2s1 [Compound 7]
mTORC
  pIC50: < 6.00

## CCCOc1cc(N)ccc1C(=O)OCCN(CC)CC [propoxycaine]
[1]
  plasma stability: low plasma stability

## CNC(=O)Cn1nc(-c2ccc3nc(NC(C)=O)sc3c2)c2c(N)ncnc21 [Compound 18]
mTORC
  pIC50: < 6.00
PI3K beta
  pIC50: < 6.00
PI3K gamma
  pIC50: < 6.00

## CNC(=O)Nc1nc2ccc(-c3nn(C(C)C)c4ncnc(N)c34)cc2s1 [Compound 20]
mTORC
  pIC50: ≥ 7.30

## CC(=O)Nc1nc2cc(-c3nn(C(C)C)c4ncnc(N)c34)ccc2s1 [Compound 17]
mTORC
  pIC50: ≥ 6.00

## CC(C)n1nc(-c2ccc3nc(N4CCOCC4)sc3c2)c2c(N)ncnc21 [Compound 14]
mTORC
  pIC50: < 6.00
PI3K alpha
  pIC50: < 6.00

## CC(=O)Nc1nc2ccc(-c3nn(C4CCCC4)c4ncnc(N)c34)cc2s1 [Compound 4]
mTORC
  pIC50: ≥ 7.30
PI3K beta
  pIC50: < 6.00

## CC(C)n1nc(-c2ccc3nc(NCCN4CCOCC4)sc3c2)c2c(N)ncnc21 [Compound 13]
mTORC
  pIC50: < 6.00
PI3K alpha
  pIC50: < 6.00

## O=C(O)CCCc1ccc(N(CCCl)CCCl)cc1 [chlorambucil]
[2]
  chemical stability: largely hydrolyzed

## CC(=O)Nc1nc2ccc(-c3nn(C(C)C)c4ncnc(N)c34)cc2s1 [Compound 1]
mTORC
  pIC50: ≥ 7.30
PI3K alpha
  pIC50: ≥ 6.30
PI3K beta
  pIC50: < 6.00

## CC(=O)Nc1nc2ccc(-c3nn(C4CCOCC4)c4ncnc(N)c34)cc2s1 [Compound 19]
mTORC
  pIC50: ≥ 7.30
PI3K alpha
  pIC50: ≥ 6.30

## CC(=O)Nc1nc2ccc(-c3nn(C4CCC4)c4ncnc(N)c34)cc2s1 [Compound 10]
mTORC
  pIC50: ≥ 7.00
PI3K alpha
  pIC50: ≥ 7.00
PI3K delta
  pIC50: ≥ 7.00

## CCn1nc(-c2ccc3nc(NC(C)=O)sc3c2)c2c(N)ncnc21 [Compound 5]
mTORC
  pIC50: ≥ 7.30
PI3K alpha
  pIC50: ≥ 7.00
PI3K beta
  pIC50: < 6.00

## CCNc1nc2ccc(-c3nn(C(C)C)c4ncnc(N)c34)cc2s1 [Compound 12]
mTORC
  pIC50: ≥ 6.30
PI3K alpha
  pIC50: ≥ 6.30
PI3K gamma
  pIC50: ≥ 6.30
PI3K delta
  pIC50: ≥ 6.00

## CNC(=O)Nc1nc2ccc(-c3cn(C4CCOCC4)c4ncnc(N)c34)cc2s1 [Compound 21]
mTORC
  pIC50: ≥ 7.30
PC3
  pIC50: ≥ 6.00

## CC(C)n1nc(-c2ccc3ncsc3c2)c2c(N)ncnc21 [Compound 2]
mTORC
  pIC50: < 6.00

## CO[C@H]1C[C@@H]2CC[C@@H](C)[C@@](O)(O2)C(=O)C(=O)N2CCCC[C@H]2C(=O)O[C@H]([C@H](C)C[C@@H]2CC[C@@H](OCCO)[C@H](OC)C2)CC(=O)[C@H](C)/C=C(\C)[C@@H](O)[C@@H](OC)C(=O)[C@H](C)C[C@H](C)/C=C/C=C/C=C/1C [RAD001]
B6.Sle1z.Sle3z model
  lupus symptoms: ameliorate lupus symptoms

## CC(C)n1nc(-c2ccc3nc(NC(=O)C4CC4)sc3c2)c2c(N)ncnc21 [Compound 8]
mTORC
  pIC50: ≥ 6.30
PI3K alpha
  pIC50: ≥ 6.00

## CNc1nc2ccc(-c3nn(C(C)C)c4ncnc(N)c34)cc2s1 [Compound 11]
mTORC
  pIC50: ≥ 7.30
PI3K alpha
  pIC50: ≥ 7.00
PI3K beta
  pIC50: < 6.00
PI3K delta
  pIC50: ≥ 6.30

## Cc1ccc(NC(=O)c2ccc(CN3CCN(C)CC3)cc2)cc1Nc1nccc(-c2cccnc2)n1 [imatinib]
[3]
  leukemogenesis: delay but not cure leukemogenesis

## CC(C)n1nc(-c2ccc3nc(NCCO)sc3c2)c2c(N)ncnc21 [Compound 16]
mTORC
  pIC50: ≥ 6.00
PI3K alpha
  pIC50: ≥ 6.00

## CNC(=O)Nc1nc2ccc(-c3cn(C(C)C)c4ncnc(N)c34)cc2s1 [Compound 22]
mTORC
  pIC50: ≥ 7.30
PC3
  pIC50: ≥ 7.00

## CC(=O)Nc1nc2ccc(-c3nn(C)c4ncnc(N)c34)cc2s1 [Compound 6]
mTORC
  pIC50: < 6.00
PI3K alpha
  pIC50: ≥ 6.00

## CCC(=O)Nc1nc2ccc(-c3nn(C(C)C)c4ncnc(N)c34)cc2s1 [Compound 9]
mTORC
  pIC50: ≥ 6.30
PI3K alpha
  pIC50: ≥ 6.30

## CC(C)n1nc(-c2ccc3nc(NC4CC4)sc3c2)c2c(N)ncnc21 [Compound 15]
mTORC
  pIC50: ≥ 6.30
PI3K alpha
  pIC50: < 6.00
PI3K beta
  pIC50: < 6.00

## CC(C)[N+](C)(CCOC(=O)C1c2ccccc2Oc2ccccc21)C(C)C [propantheline]
[1]
  plasma stability: intermediate plasma stability

## CNC(=O)Nc1nc2ccc(-c3cn(C4CCN(C(C)=O)CC4)c4ncnc(N)c34)cc2s1 [Compound 23]
mTORC
  pIC50: ≥ 7.30
PI3K beta
  pIC50: ≥ 7.00
PC3
  pIC50: < 6.00

## CC(C)n1nc(-c2ccc3nc(N)sc3c2)c2c(N)ncnc21 [Compound 3]
mTORC
  pIC50: ≥ 7.30
PI3K alpha
  pIC50: ≥ 6.30
PI3K beta
  pIC50: < 6.00
PI3K delta
  pIC50: ≥ 7.00
